Source: publication PMC5218480 (PLoS ONE, 2017)

System: MV-4-11 cells
Assay: Gene expression microarray analysis (Affymetrix PrimeView) and GSEA
Assay type: cell-based, human
Parameters: RFU PODN (11730768_x_at) / Fold change /veh PODN (11730768_x_at) / RFU LINC00158 (11744669_a_at) / Fold change /veh LINC00158 (11744669_a_at) / RFU DUSP10 (11751237_a_at) / Fold change /veh DUSP10 (11751237_a_at) / RFU ID3 (11757404_x_at) / Fold change /veh ID3 (11757404_x_at) / RFU PLEKHG5 (11737974_s_at) / Fold change /veh PLEKHG5 (11737974_s_at) / RFU LRRC4B (11730491_at) / Fold change /veh LRRC4B (11730491_at) / RFU GIMAP4 (11747438_a_at) / Fold change /veh GIMAP4 (11747438_a_at) / RFU KRT8 (11758183_x_at) / Fold change /veh KRT8 (11758183_x_at) / RFU CNN1 (11734310_a_at) / Fold change /veh CNN1 (11734310_a_at) / RFU VPS37D (11726825_at) / Fold change /veh VPS37D (11726825_at) / RFU C10orf10 (11716522_x_at) / Fold change /veh C10orf10 (11716522_x_at) / RFU KIR2DL2 /// KIR2DL4 /// KIR2DL5A /// KIR2DL5B /// KIR2DS1 /// KIR2DS2 /// KIR2DS3 /// KIR2DS4 /// KIR3DL3 /// KIR3DL3 /// KIR3DS1 (11738374_at) / Fold change /veh KIR2DL2 /// KIR2DL4 /// KIR2DL5A /// KIR2DL5B /// KIR2DS1 /// KIR2DS2 /// KIR2DS3 /// KIR2DS4 /// KIR3DL3 /// KIR3DL3 /// KIR3DS1 (11738374_at) / RFU C1QL1 (11718748_at) / Fold change /veh C1QL1 (11718748_at) / RFU TMPRSS4 (11747572_a_at) / Fold change /veh TMPRSS4 (11747572_a_at) / RFU HAMP (11756126_x_at) / Fold change /veh HAMP (11756126_x_at) / RFU RNFT2 (11725882_a_at) / Fold change /veh RNFT2 (11725882_a_at) / RFU NR4A2 (11747474_a_at) / Fold change /veh NR4A2 (11747474_a_at) / RFU ABCC12 (11746883_a_at) / Fold change /veh ABCC12 (11746883_a_at) / RFU TMEM136 (11760407_x_at) / Fold change /veh TMEM136 (11760407_x_at) / RFU CLDN22 /// WWC2 (11732394_at) / Fold change /veh CLDN22 /// WWC2 (11732394_at) / RFU HLA-DPB1 (11760878_x_at) / Fold change /veh HLA-DPB1 (11760878_x_at) / RFU SPINT1 (11716480_a_at) / Fold change /veh SPINT1 (11716480_a_at) / RFU GAP43 (11754022_s_at) / Fold change /veh GAP43 (11754022_s_at) / RFU A4GNT (11735810_at) / Fold change /veh A4GNT (11735810_at) / RFU PRB3 (11715151_x_at) / Fold change /veh PRB3 (11715151_x_at) / RFU TUBB4B (11761932_at) / Fold change /veh TUBB4B (11761932_at) / RFU CAPN14 (11732068_a_at) / Fold change /veh CAPN14 (11732068_a_at) / RFU TMCC2 (11721928_a_at) / Fold change /veh TMCC2 (11721928_a_at) / RFU IRGQ (11745062_a_at) / Fold change /veh IRGQ (11745062_a_at) / RFU FAM174B (11720279_a_at) / Fold change /veh FAM174B (11720279_a_at) / RFU TMPRSS4 (11748680_a_at) / Fold change /veh TMPRSS4 (11748680_a_at) / RFU FAM212B (11763350_a_at) / Fold change /veh FAM212B (11763350_a_at) / RFU PLEKHG5 (11743358_a_at) / Fold change /veh PLEKHG5 (11743358_a_at) / RFU ZSCAN30 (11745921_a_at) / Fold change /veh ZSCAN30 (11745921_a_at) / RFU CMKLR1 (11741424_a_at) / Fold change /veh CMKLR1 (11741424_a_at) / RFU LOC101060620 /// MAPK8IP1 (11723275_at) / Fold change /veh LOC101060620 /// MAPK8IP1 (11723275_at) / RFU SPTSSB (11747773_x_at) / Fold change /veh SPTSSB (11747773_x_at) / RFU PRSS12 (11739890_at) / Fold change /veh PRSS12 (11739890_at) / RFU BIN1 (11741810_x_at) / Fold change /veh BIN1 (11741810_x_at) / RFU WNT11 (11732464_a_at) / Fold change /veh WNT11 (11732464_a_at) / RFU C10orf10 (11716521_a_at) / Fold change /veh C10orf10 (11716521_a_at) / RFU C5orf56 (11738089_at) / Fold change /veh C5orf56 (11738089_at) / RFU CYB561 (11721691_x_at) / Fold change /veh CYB561 (11721691_x_at) / RFU ANKRD19P (11752326_a_at) / Fold change /veh ANKRD19P (11752326_a_at) / RFU OR2T12 /// OR2T33 /// OR2T8 (11738714_s_at) / Fold change /veh OR2T12 /// OR2T33 /// OR2T8 (11738714_s_at) / RFU VCAN (11748164_a_at) / Fold change /veh VCAN (11748164_a_at) / RFU JSRP1 (11732532_at) / Fold change /veh JSRP1 (11732532_at) / RFU KRTAP10-11 (11738290_x_at) / Fold change /veh KRTAP10-11 (11738290_x_at) / RFU MYO3A (11730013_a_at) / Fold change /veh MYO3A (11730013_a_at) / RFU EBF3 (11725865_a_at) / Fold change /veh EBF3 (11725865_a_at) / RFU CAMK2N1 (11719241_x_at) / Fold change /veh CAMK2N1 (11719241_x_at) / RFU C5orf56 (11738088_a_at) / Fold change /veh C5orf56 (11738088_a_at) / RFU OLFML3 (11715873_a_at) / Fold change /veh OLFML3 (11715873_a_at) / RFU LOC100653217 /// NTM (11731650_a_at) / Fold change /veh LOC100653217 /// NTM (11731650_a_at) / RFU MAPK11 (11762145_a_at) / Fold change /veh MAPK11 (11762145_a_at) / RFU FIZ1 (11724087_x_at) / Fold change /veh FIZ1 (11724087_x_at) / RFU OASL (11726364_x_at) / Fold change /veh OASL (11726364_x_at) / RFU SOX15 (11748057_x_at) / Fold change /veh SOX15 (11748057_x_at) / RFU CD79A (11719716_a_at) / Fold change /veh CD79A (11719716_a_at) / RFU HIST1H1D (11736915_at) / Fold change /veh HIST1H1D (11736915_at) / RFU CASKIN2 (11723855_a_at) / Fold change /veh CASKIN2 (11723855_a_at) / RFU LOC730098 (11760151_x_at) / Fold change /veh LOC730098 (11760151_x_at) / RFU OR4N2 (11742367_at) / Fold change /veh OR4N2 (11742367_at) / RFU PRRT2 (11749266_a_at) / Fold change /veh PRRT2 (11749266_a_at) / RFU SNX32 (11753110_a_at) / Fold change /veh SNX32 (11753110_a_at) / RFU CDHR5 (11726645_a_at) / Fold change /veh CDHR5 (11726645_a_at) / RFU RCAN1 (11760418_a_at) / Fold change /veh RCAN1 (11760418_a_at) / RFU FAM167A (11723789_a_at) / Fold change /veh FAM167A (11723789_a_at) / RFU FAM26E (11764081_at) / Fold change /veh FAM26E (11764081_at) / RFU ISYNA1 (11749810_s_at) / Fold change /veh ISYNA1 (11749810_s_at) / RFU ACY1 (11761880_at) / Fold change /veh ACY1 (11761880_at) / RFU 11764098_at / Fold change /veh 11764098_at / RFU SAMD14 (11745864_x_at) / Fold change /veh SAMD14 (11745864_x_at) / RFU NPB (11741838_a_at) / Fold change /veh NPB (11741838_a_at) / RFU TMPRSS6 (11731388_a_at) / Fold change /veh TMPRSS6 (11731388_a_at) / RFU KRTAP10-2 (11738614_at) / Fold change /veh KRTAP10-2 (11738614_at) / RFU ARHGAP8 /// PRR5-ARHGAP8 (11727945_x_at) / Fold change /veh ARHGAP8 /// PRR5-ARHGAP8 (11727945_x_at) / RFU KRTAP5-7 /// NADSYN1 (11734609_at) / Fold change /veh KRTAP5-7 /// NADSYN1 (11734609_at) / RFU RASL12 (11751679_a_at) / Fold change /veh RASL12 (11751679_a_at) / RFU CDKN2B (11736163_a_at) / Fold change /veh CDKN2B (11736163_a_at) / RFU PRF1 (11729649_at) / Fold change /veh PRF1 (11729649_at) / RFU, ZNF638 /// ZNF638-IT1 / Fold change vs veh, ZNF638 /// ZNF638-IT1 / RFU, PANK3 / Fold change vs veh, PANK3 / RFU, SH3YL1 / Fold change vs veh, SH3YL1 / RFU, ZEB2 / Fold change vs veh, ZEB2 / RFU, NRIP1 / Fold change vs veh, NRIP1 / RFU, PTTG1IP / Fold change vs veh, PTTG1IP / RFU, CAPN2 / Fold change vs veh, CAPN2 / RFU, MED14 / Fold change vs veh, MED14 / RFU, SNORA58 / Fold change vs veh, SNORA58 / RFU, C1orf63 / Fold change vs veh, C1orf63 / RFU, LRRFIP1 / Fold change vs veh, LRRFIP1 / RFU, NDUFAF7 / Fold change vs veh, NDUFAF7 / RFU, SLC12A2 / Fold change vs veh, SLC12A2 / RFU, IBTK / Fold change vs veh, IBTK / RFU, ESF1 / Fold change vs veh, ESF1 / Fold change vs veh, TMEM50B / RFU, TAOK1 / Fold change vs veh, TAOK1 / RFU, ACBD3 / Fold change vs veh, ACBD3 / RFU, TMA16 / Fold change vs veh, TMA16 / RFU, RWDD3 / Fold change vs veh, RWDD3 / RFU, BCAT1 / Fold change vs veh, BCAT1 / RFU, EDEM3 / Fold change vs veh, EDEM3 / RFU, TMEM33 / Fold change vs veh, TMEM33 / RFU, WDR75 / Fold change vs veh, WDR75 / RFU, AHCTF1 / Fold change vs veh, AHCTF1 / RFU, TFRC / Fold change vs veh, TFRC / RFU, ZDHHC17 / Fold change vs veh, ZDHHC17 / RFU, NOM1 / Fold change vs veh, NOM1 / RFU, ARL8B / Fold change vs veh, ARL8B / RFU, ZBTB11 / Fold change vs veh, ZBTB11 / RFU, TAMM41 / Fold change vs veh, TAMM41 / RFU, KIAA1704 /// LOC100996395 / Fold change vs veh, KIAA1704 /// LOC100996395 / RFU, ING1 / Fold change vs veh, ING1 / RFU, TRMT61B / Fold change vs veh, TRMT61B / RFU, FUBP3 / Fold change vs veh, FUBP3 / RFU, TP53 / Fold change vs veh, TP53 / RFU, TNKS2 / Fold change vs veh, TNKS2 / RFU, ZFP14 / Fold change vs veh, ZFP14 / RFU, ACTR2 / Fold change vs veh, ACTR2 / RFU, PPP3R1 / Fold change vs veh, PPP3R1 / RFU, PIK3R1 / Fold change vs veh, PIK3R1 / RFU, HNRNPA1 / Fold change vs veh, HNRNPA1 / RFU, RNF170 / Fold change vs veh, RNF170 / RFU, ZNF28 / Fold change vs veh, ZNF28 / RFU, RNGTT / Fold change vs veh, RNGTT / RFU, OGT / Fold change vs veh, OGT / RFU, BRD1 / Fold change vs veh, BRD1 / RFU, MARS / Fold change vs veh, MARS / RFU, ZNF655 / Fold change vs veh, ZNF655 / RFU, FAHD1 / Fold change vs veh, FAHD1 / RFU, BDP1 / Fold change vs veh, BDP1 / RFU, LRRCC1 / Fold change vs veh, LRRCC1 / RFU, ARID1A / Fold change vs veh, ARID1A / RFU, ZNF146 / Fold change vs veh, ZNF146 / RFU, ZNF330 / Fold change vs veh, ZNF330 / RFU, GPN3 / Fold change vs veh, GPN3 / RFU, C9orf123 / Fold change vs veh, C9orf123 / RFU, N4BP2L2 / Fold change vs veh, N4BP2L2 / RFU, ARFIP1 / Fold change vs veh, ARFIP1 / RFU, FAM179B / Fold change vs veh, FAM179B / RFU, BCL10 / Fold change vs veh, BCL10 / RFU, UHRF1BP1L / Fold change vs veh, UHRF1BP1L / RFU, BET1 / Fold change vs veh, BET1 / RFU, CNOT2 / Fold change vs veh, CNOT2 / RFU, ZNF268 / Fold change vs veh, ZNF268 / Fold change vs veh, ZNF507 / RFU, DGCR2 / Fold change vs veh, DGCR2 / RFU, WDSUB1 / Fold change vs veh, WDSUB1 / Fold change vs veh, HSP90B1 /// MIR3652 / RFU, ADSS / Fold change vs veh, ADSS / RFU, GK / Fold change vs veh, GK / RFU, ZNF148 / Fold change vs veh, ZNF148 / RFU, TAF9 / Fold change vs veh, TAF9 / RFU, SLC1A5 / Fold change vs veh, SLC1A5 / RFU, SLMO2 / Fold change vs veh, SLMO2 / RFU, ABCC4 / Fold change vs veh, ABCC4 / RFU, LOC101060439 /// RAP1B / Fold change vs veh, LOC101060439 /// RAP1B / RFU, RFX7 / Fold change vs veh, RFX7 / RFU, GTPBP10 / Fold change vs veh, GTPBP10 / RFU, CNEP1R1 / Fold change vs veh, CNEP1R1 / RFU, BIVM-ERCC5 /// ERCC5 / Fold change vs veh, BIVM-ERCC5 /// ERCC5 / RFU, ILF3 / Fold change vs veh, ILF3 / RFU 11762660_at / Fold change /veh 11762660_at / RFU VCAN (11757783_s_at) / Fold change /veh VCAN (11757783_s_at) / RFU DDX43 (11728927_at) / Fold change /veh DDX43 (11728927_at) / RFU KRT8 (11758188_x_at) / Fold change /veh KRT8 (11758188_x_at) / RFU NKD1 (11759106_at) / Fold change /veh NKD1 (11759106_at) / RFU SRD5A1 (11742802_a_at) / Fold change /veh SRD5A1 (11742802_a_at) / RFU TPSAB1 /// TPSB2 (11721975_s_at) / Fold change /veh TPSAB1 /// TPSB2 (11721975_s_at) / RFU GSTM3 (11746129_a_at) / Fold change /veh GSTM3 (11746129_a_at) / RFU IL23R (11737362_x_at) / Fold change /veh IL23R (11737362_x_at) / RFU TMEM51 (11727254_a_at) / Fold change /veh TMEM51 (11727254_a_at) / RFU PIWIL2 (11732686_x_at) / Fold change /veh PIWIL2 (11732686_x_at) / RFU ORM1 (11744905_x_at) / Fold change /veh ORM1 (11744905_x_at) / RFU CCDC152 (11743942_at) / Fold change /veh CCDC152 (11743942_at) / RFU ECM1 (11717891_a_at) / Fold change /veh ECM1 (11717891_a_at) / RFU IL23R (11748794_a_at) / Fold change /veh IL23R (11748794_a_at) / RFU TNFAIP8L3 (11732012_x_at) / Fold change /veh TNFAIP8L3 (11732012_x_at) / RFU MBOAT4 (11741988_at) / Fold change /veh MBOAT4 (11741988_at) / RFU 11764193_at / Fold change /veh 11764193_at / RFU TMEM53 (11763286_at) / Fold change /veh TMEM53 (11763286_at) / RFU MAGEB2 (11727129_at) / Fold change /veh MAGEB2 (11727129_at) / RFU TMEM200A (11744735_a_at) / Fold change /veh TMEM200A (11744735_a_at) / RFU CCDC152 (11751479_a_at) / Fold change /veh CCDC152 (11751479_a_at) / RFU FAM211A (11726209_a_at) / Fold change /veh FAM211A (11726209_a_at) / RFU RGS16 (11746705_a_at) / Fold change /veh RGS16 (11746705_a_at) / RFU VCAN (11755009_s_at) / Fold change /veh VCAN (11755009_s_at) / RFU RHOB (11743442_s_at) / Fold change /veh RHOB (11743442_s_at) / RFU RGS16 (11720943_a_at) / Fold change /veh RGS16 (11720943_a_at) / RFU RGS16 (11720944_at) / Fold change /veh RGS16 (11720944_at) / RFU, VPS4B / Fold change vs veh, VPS4B / RFU, CREB1 / Fold change vs veh, CREB1 / RFU, DNAJC13 / Fold change vs veh, DNAJC13 / RFU, GNAQ / Fold change vs veh, GNAQ / RFU, CDK5R1 / Fold change vs veh, CDK5R1 / RFU, ZRANB3 / Fold change vs veh, ZRANB3 / RFU, CUL4A / Fold change vs veh, CUL4A / RFU, CCNY / Fold change vs veh, CCNY / RFU, UFL1 / Fold change vs veh, UFL1 / RFU, COG3 / Fold change vs veh, COG3 / RFU, DIAPH2 / Fold change vs veh, DIAPH2 / RFU, SKA2 / Fold change vs veh, SKA2 / RFU, AFF3 / Fold change vs veh, AFF3 / RFU, LMF1 / Fold change vs veh, LMF1 / RFU, IPO11 / Fold change vs veh, IPO11 / RFU, DFFB / Fold change vs veh, DFFB / RFU, FOXP1 / Fold change vs veh, FOXP1 / RFU, CARD8 / Fold change vs veh, CARD8 / RFU, STRN3 / Fold change vs veh, STRN3 / RFU, ADK / Fold change vs veh, ADK / RFU, RASSF2 / Fold change vs veh, RASSF2 / RFU, WIPF1 / Fold change vs veh, WIPF1 / RFU, LARP1B / Fold change vs veh, LARP1B / RFU, RASA1 / Fold change vs veh, RASA1 / RFU, RB1 / Fold change vs veh, RB1 / RFU, PPFIA1 / Fold change vs veh, PPFIA1 / RFU, MAT2A / Fold change vs veh, MAT2A / RFU, CCT5 / Fold change vs veh, CCT5 / RFU, WDR92 / Fold change vs veh, WDR92 / RFU, CUX1 / Fold change vs veh, CUX1 / RFU, TTC7A / Fold change vs veh, TTC7A / RFU, TMEM135 / Fold change vs veh, TMEM135 / RFU, DEPTOR / Fold change vs veh, DEPTOR / RFU, CPM / Fold change vs veh, CPM / RFU, DNAJB6 / Fold change vs veh, DNAJB6 / RFU, CACNA2D3 / Fold change vs veh, CACNA2D3 / RFU, DTX4 / Fold change vs veh, DTX4 / RFU, TFCP2 / Fold change vs veh, TFCP2 / RFU, GMCL1 /// GMCL1P1 / Fold change vs veh, GMCL1 /// GMCL1P1 / RFU, AEBP2 / Fold change vs veh, AEBP2 / RFU, SNHG1 /// SNORD22 /// SNORD25 /// SNORD26 /// SNORD27 /// SNORD28 /// SNORD29 /// SNORD31 / Fold change vs veh, SNHG1 /// SNORD22 /// SNORD25 /// SNORD26 /// SNORD27 /// SNORD28 /// SNORD29 /// SNORD31 / Fold change (Aza/veh), C12orf56 (ProbeSet 11735607_a_at) / Fold change (ACY-1035/veh), C12orf56 (ProbeSet 11735607_a_at) / Fold change (Aza/veh), FGFR1OP (ProbeSet 11751329_s_at) / Fold change (ACY-1035/veh), FGFR1OP (ProbeSet 11751329_s_at) / Fold change (Aza/veh), VPS36 (ProbeSet 11739960_a_at) / Fold change (ACY-1035/veh), VPS36 (ProbeSet 11739960_a_at) / RFU SYPL1 (11715823_x_at) / Fold change /veh SYPL1 (11715823_x_at) / RFU IGFBP7 (11715501_s_at) / Fold change /veh IGFBP7 (11715501_s_at) / RFU REEP3 (11722064_at) / Fold change /veh REEP3 (11722064_at) / RFU IGLL1 (11728026_x_at) / Fold change /veh IGLL1 (11728026_x_at): dose or concentration left out as unconfirmed
Details: MV-4-11 cells, 48 hours

## Nc1ncn([C@@H]2O[C@H](CO)[C@@H](O)[C@H]2O)c(=O)n1 [azacitidine]
  Fold change /veh PRB3 (11715151_x_at): 0.94
